Key:
[1] = Drug level in sputum of healthy human between 6 to 24 hrs postdosing; format: ADME, tissue-based; settings: in vivo
[2] = Cmax in healthy human at […] parenteral dose; format: ADME, organism-based; settings: in vivo

Row | Compound | Drug uptake [1] [ng/mL] | Cmax [2] [ng/mL]
1 | CC(=O)N[C@H]1[C@H]([C@H](O)[C@H](O)CO)OC(C(=O)O)=C[C@@H]1N=C(N)N [ZANAMIVIR] | 47 | 
2 | CCC(CC)[C@H](NC(C)=O)[C@@H]1[C@H](O)[C@@H](C(=O)O)C[C@H]1NC(=N)N [PERAMIVIR ANHYDROUS] |  | 10000
